Reference: patent US5981499A, “Lesion-directed antibiotics in dry dosage forms for the treatment of shallow ulcers of the oral mucosa” (Atlantic Biomed Corporation, priority 1998, dated 1999)
Where a name gives a salt, the structure may show the parent alone. Read-outs that look alike come from different tables or passages of the source.

How the values were obtained:
aphthous ulcers = details: background, cited from earlier work; for efficacy of prior treatment: aphthous ulcers/stomatitis
[1] = Concentration at the ulcer assuming the troche dissolves in 0.1 ml of saliva; details: assuming troche dissolved in 0.1 ml saliva
Experimental: Application of the penicillin/magnesium stearate troches in the aforementioned manner created a supratherapeutic concentration of penicillin on the raw surface of the aphthous ulcer. Assuming that the troche is dissolved in 0.1 ml of saliva locally at the ulcer, the initial concentration of penicillin would reach up to 500 mg/ml, and that of magnesium stearate 10 mg/ml. Under the influence of this extraordinarily high concentration of penicillin G or penicillin V, most microorganisms of the normal flora cannot survive or continue to multiply, permitting tissue regeneration processes to occur under the protective barrier coating formed by the magnesium stearate.
When the oxytetracycline hydrochloride/magnesium stearate troches are applied in the manner described in Example 1, extraordinarily high concentrations of antibiotic were released on the raw surface of the treated ulcers. Assuming that the troche is dissolved in 0.1 ml of saliva, the peak concentration of oxytetracycline would be between about 400-800 mg/ml locally at the site of the ulcer, and that of magnesium stearate 10 mg/ml.

[2] = tested on: Staphylococcus aureus (ATCC 29213); test: Minimum inhibitory concentration against the standard strain by serial two-fold dilution in nutrient broth; type: cell-based
Experimental: For determination of the peak concentration, 1 ml of the bacteria-free filtrate was further diluted with 9 ml of nutrient broth to achieve a 1:10,000 dilution of the saliva. Then a serial two-fold dilution was made of this 1:10,000 diluted saliva sample with an equal volume of nutrient broth in a roll of test tubes to obtain a series of 1 ml aliquots of nutrient broth in which the saliva was diluted to 20,000, 40,000, 80,000, 160,000, 320,000, 640,000, 1,280,000 and 2,560,000 folds respectively. […] Thus the final dilutions of the saliva sample were in the range of 40,000 to 5,120,000 folds.
As control standards, a series of test tubes containing 1 ml of nutrient broth with varying concentrations of penicillin G potassium salt ranging from 0.1 units to 10 units/ml were similarly mixed with an equal volume of nutrient broth freshly inoculated with the standard tubes of Staphylococcus aureus. Both the test and control standard tubes were incubated at 37° C. for 18 hours. Among the test tubes showing no gross evidence of bacterial growth, the one containing the highest dilution of saliva and the one containing the least amount of penicillin G were considered as having the identical concentration of penicillin, i.e. the MIC of the staphylococcus aureus.

[3] = Local peak and one-hour trough antibiotic concentration in loculated saliva at the site of the troche (microbiological dilution assay); type: in vivo, human; details: 50 mg troche; for local trough concentration of penicillin in saliva: end of one-hour duration
Gram-negative bacilli = details: cited from earlier work
[4] = single intravenous injection of penicillin G, usually 500 mg; cited from earlier work
[5] = tested on: Patients with aphthous ulcers; test: Topical treatment of patients with aphthous ulcers; type: in vivo, human
Experimental: Patients with aphthous ulcers were advised to brush their teeth to rid them of food residues, and to rinse their mouths with water prior to initiating treatment.
One penicillin/magnesium stearate troche was placed in the patients' mouths directly over the ulcerated lesion. The troche was dissolved or disintegrated in a minimum amount of saliva directly over the ulcer in no more than 15 minutes, preferably in about 8 to about 12 minutes. The patients were advised to keep the ingredients of the disintegrated troche at the site of the lesion as long as possible. Food and beverages were avoided for one hour after each treatment. If multiple aphthous ulcers were present, one troche was required for the treatment of each ulcer. The topical treatments were conducted 4 times daily, for example, after breakfast, after lunch, after dinner and before bed time for no more than 4 days. […] The burning sensation lessened with subsequent applications.
For instance, the first sign of healing is usually the fading of the hyperemic zone at the periphery of the ulcer and the lessening of edema at the base of the ulcer. The membrane covering the ulcer becomes thinner, more translucent, more pearly white instead of a grayish-yellowish white prior to the application and contract with the troche. […]

[6] = tested on: Staphylococcus aureus (ATCC 29213); details: ATCC 29213, known range; cited from earlier work

## O=C1CCC(N2C(=O)c3ccccc3C2=O)C(=O)N1 (stereo not shown) [Thalidomide]
Aphthous ulcers
  efficacy of prior treatment: effective in some HIV-infected patients
  adverse reactions of prior treatment: teratogenic

## CCCCCCCCCCCCCCCCCC(=O)O [magnesium stearate]
[1]
  concentration of magnesium stearate at the ulcer: 10000 µg/mL

## CN(C)[C@@H]1C(=O)C(C(N)=O)=C(O)[C@@]2(O)C(=O)C3=C(O)c4c(O)cccc4[C@@](C)(O)[C@H]3[C@H](O)[C@@H]12 [oxytetracycline hydrochloride, Oxytetracycline hydrochloride]
[2]; Staphylococcus aureus, ATCC29213, ATCC 29213, read-out: sensitivity to oxytetracycline hydrochloride, MIC
  MIC: 1 µg/mL
[3]; two subjects, 60 min
  one-hour trough concentration of oxytetracycline hydrochloride in saliva: 8 mg/mL
[3]; human, in vivo, topical or ocular, 50 mg, two subjects, read-out: initial peak concentration of oxytetracycline hydrochloride in saliva
  Cmax: 400000 µg/mL
[3]; human, in vivo, topical or ocular, two subjects, read-out: one-hour trough concentration of oxytetracycline hydrochloride in saliva
  concentration at 1 h: 8000 µg/mL
[1]
  initial/peak concentration of antibiotic at the ulcer: 400 to 800 mg/mL

## CC1(C)S[C@@H]2[C@H](NC(=O)Cc3ccccc3)C(=O)N2[C@H]1C(=O)O [penicillin G]
[2]; three experiments, 37° C., 18 hours
  MIC of penicillin G for the standard strain of Staphylococcus aureus: 1 unit/ml
[3]
  local trough concentration of penicillin in saliva: 4,000-64,000 units/ml
[3]; 60 min
  local trough concentration of penicillin in saliva: 2.5 to 40 mg/mL
[3]; human, in vivo, topical or ocular, at complete dissolution, read-out: initial peak local concentration of penicillin G in saliva
  Cmax: 500000 µg/mL
Gram-negative bacilli; 740 mcg/ml as cut-off MIC
  susceptibility of many Gram-negative bacilli (Salmonella, Shigella, most Escherichia coli, all Proteus mirabilis, most Bacteroides strains): sensitive
Gram-negative bacilli; at 16 mcg/ml
  susceptibility of Gram-negative bacilli: resistant
[4]
  average peak blood level: about 26 units/ml

## CC1(C)S[C@@H]2[C@H](NC(=O)Cc3ccccc3)C(=O)N2[C@H]1C(=O)O [penicillin]
[5]; 4 days of penicillin medication
  adverse reactions of stomatitis or discoloration of the tongue: no observed adverse reactions
[5]; after 4 days
  status of ulcer after 4 days of medication: only remnants of a thin pearly whitish membrane remain, if any, covering an incompletely re-epithelialized newly healed ulcer
[6]
  known minimum inhibitory concentration (MIC) of the standard strain: 0.25-2 units of penicillin/ml
Aphthous ulcers
  efficacy of prior treatment: ineffective
  adverse reactions of prior treatment: likely to produce hypersensitivity

## O=S(=O)([O-])[O-].[Zn+2] [zinc sulfate]
Aphthous ulcers
  efficacy of prior treatment: responded

## aluminum subsalt of sucrose-8-sulfate [sucralfate]
Aphthous ulcers
  efficacy of prior treatment: responded
